Measured values published in patent US5441941A, “1,2-dihydroellipticines with activity against CNS specific cancer” (The United States of America as represented by the …, priority 1993, dated 1995).

Key:
DMS 114 = assay: cells; settings: Homo sapiens; for CC50: DMS-114, read-out: LC-50
DMS 273 = assay: NCI in vitro screen, SRB percent growth, Small Cell Lung Cancer
[1] = DMS-114, read-out: Percent Growth

SMILES | CC50 (DMS 114) [µM] | activity at 0.1 µM (DMS 114; [1]) [%] | activity at 1 µM (DMS 114; [1]) [%] | activity at 10 µM (DMS 114; [1]) [%] | activity at 100 µM (DMS 114; [1]) [%] | Percent Growth (DMS 273; Log10 Concentration -4.0, 100 µM) [%] | Percent Growth (DMS 273; Log10 Concentration -5.0) [%] | Percent Growth (DMS 273; Log10 Concentration -6.0, 1 µM) [%] | Percent Growth (DMS 273; Log10 Concentration -7.0, 0.1 µM) [%] | Percent Growth (DMS 273; Log10 Concentration -8.0) [%] | CC50 (DMS 273; read-out: LC-50, PG=-50) [µM] | activity at 0.01 µM (DMS 114; [1]) [%]
COc1ccc2[nH]c3c(C)c4c(c(C)c3c2c1)CN(C)C=C4 [Formula VII] | > 100 | 64 | 11 | -37 | -46 | -72 | 10 | 48 | 77 | 98 | 54.3 | 
Cc1ccc2[nH]c3c(C)c4c(c(C)c3c2c1)CN(C)C=C4 [Formula XI] | 6.03 | 73 |  | -74 | -68 |  |  |  |  |  |  | 80
